Common to all, as to type: cell-based
In one test the target is T1, hNaV1.2 (Homo sapiens, UniProt Q99250).
T1 construct: host or cells: HEK293
Nature of the test: Automated whole-cell patch-clamp (QPatch 16X), hNaV1.2. The conditions noted are these: for IC50: HEK293 cells expressing hNaV1.2 + β1 subunit, QPatch 16X, holding −80 mV, step to 0 mV, peptide incubated 2 min, 0.1% BSA, mean, SEM and n (2-7). A digest of the protocol:
(§1)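 HEK293 cells stably expressing the channel (human subtypes with β1 subunit), held at −80 mV; 2 min peptide pre-incubation, then 20 ms steps to 0 mV after a 200 ms −120 mV conditioning pulse. Extracellular pH 7.3 with 20 mM TEA-Cl, CsF-based pipette solution, 0.1% BSA; IC50 from four-parameter Hill fit.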

A further test has as its target T2, hNaV1.7 (Homo sapiens, UniProt Q15858).
T2 construct: host or cells: HEK293
Nature of the test: Automated whole-cell patch-clamp (QPatch 16X), hNaV1.7. The conditions noted are these: HEK293 cells expressing hNaV1.7 + β1 subunit; QPatch 16X; holding −80 mV, step to 0 mV; peptide incubated 2 min; 0.1% BSA; mean, SEM and n (3-9). In a few lines:
as §1
(In general: In patch-clamp work, channel activity is measured electrically.)

The target in a further test is T3, hNaV1.3 (Homo sapiens, UniProt Q9NY46).
T3 construct: host or cells: HEK293
The experiment in a line: Automated whole-cell patch-clamp (QPatch 16X), hNaV1.3. The conditions noted are these: HEK293 cells expressing hNaV1.3 + β1 subunit; QPatch 16X; holding −80 mV, step to 0 mV; peptide incubated 2 min; 0.1% BSA; mean, SEM and n (3-12). A digest of the protocol:
as §1

Bridge positions count the residues as written; N and C are the ends. Peptide text beside a SMILES is read from it.

Experimental findings from paper PMC10682951, “Structure-function and rational design of a spider toxin Ssp1a at human voltage-gated sodium channel subtypes” (Frontiers in Pharmacology, 2023) are described below.

T2 sequence (Q15858 whole entry): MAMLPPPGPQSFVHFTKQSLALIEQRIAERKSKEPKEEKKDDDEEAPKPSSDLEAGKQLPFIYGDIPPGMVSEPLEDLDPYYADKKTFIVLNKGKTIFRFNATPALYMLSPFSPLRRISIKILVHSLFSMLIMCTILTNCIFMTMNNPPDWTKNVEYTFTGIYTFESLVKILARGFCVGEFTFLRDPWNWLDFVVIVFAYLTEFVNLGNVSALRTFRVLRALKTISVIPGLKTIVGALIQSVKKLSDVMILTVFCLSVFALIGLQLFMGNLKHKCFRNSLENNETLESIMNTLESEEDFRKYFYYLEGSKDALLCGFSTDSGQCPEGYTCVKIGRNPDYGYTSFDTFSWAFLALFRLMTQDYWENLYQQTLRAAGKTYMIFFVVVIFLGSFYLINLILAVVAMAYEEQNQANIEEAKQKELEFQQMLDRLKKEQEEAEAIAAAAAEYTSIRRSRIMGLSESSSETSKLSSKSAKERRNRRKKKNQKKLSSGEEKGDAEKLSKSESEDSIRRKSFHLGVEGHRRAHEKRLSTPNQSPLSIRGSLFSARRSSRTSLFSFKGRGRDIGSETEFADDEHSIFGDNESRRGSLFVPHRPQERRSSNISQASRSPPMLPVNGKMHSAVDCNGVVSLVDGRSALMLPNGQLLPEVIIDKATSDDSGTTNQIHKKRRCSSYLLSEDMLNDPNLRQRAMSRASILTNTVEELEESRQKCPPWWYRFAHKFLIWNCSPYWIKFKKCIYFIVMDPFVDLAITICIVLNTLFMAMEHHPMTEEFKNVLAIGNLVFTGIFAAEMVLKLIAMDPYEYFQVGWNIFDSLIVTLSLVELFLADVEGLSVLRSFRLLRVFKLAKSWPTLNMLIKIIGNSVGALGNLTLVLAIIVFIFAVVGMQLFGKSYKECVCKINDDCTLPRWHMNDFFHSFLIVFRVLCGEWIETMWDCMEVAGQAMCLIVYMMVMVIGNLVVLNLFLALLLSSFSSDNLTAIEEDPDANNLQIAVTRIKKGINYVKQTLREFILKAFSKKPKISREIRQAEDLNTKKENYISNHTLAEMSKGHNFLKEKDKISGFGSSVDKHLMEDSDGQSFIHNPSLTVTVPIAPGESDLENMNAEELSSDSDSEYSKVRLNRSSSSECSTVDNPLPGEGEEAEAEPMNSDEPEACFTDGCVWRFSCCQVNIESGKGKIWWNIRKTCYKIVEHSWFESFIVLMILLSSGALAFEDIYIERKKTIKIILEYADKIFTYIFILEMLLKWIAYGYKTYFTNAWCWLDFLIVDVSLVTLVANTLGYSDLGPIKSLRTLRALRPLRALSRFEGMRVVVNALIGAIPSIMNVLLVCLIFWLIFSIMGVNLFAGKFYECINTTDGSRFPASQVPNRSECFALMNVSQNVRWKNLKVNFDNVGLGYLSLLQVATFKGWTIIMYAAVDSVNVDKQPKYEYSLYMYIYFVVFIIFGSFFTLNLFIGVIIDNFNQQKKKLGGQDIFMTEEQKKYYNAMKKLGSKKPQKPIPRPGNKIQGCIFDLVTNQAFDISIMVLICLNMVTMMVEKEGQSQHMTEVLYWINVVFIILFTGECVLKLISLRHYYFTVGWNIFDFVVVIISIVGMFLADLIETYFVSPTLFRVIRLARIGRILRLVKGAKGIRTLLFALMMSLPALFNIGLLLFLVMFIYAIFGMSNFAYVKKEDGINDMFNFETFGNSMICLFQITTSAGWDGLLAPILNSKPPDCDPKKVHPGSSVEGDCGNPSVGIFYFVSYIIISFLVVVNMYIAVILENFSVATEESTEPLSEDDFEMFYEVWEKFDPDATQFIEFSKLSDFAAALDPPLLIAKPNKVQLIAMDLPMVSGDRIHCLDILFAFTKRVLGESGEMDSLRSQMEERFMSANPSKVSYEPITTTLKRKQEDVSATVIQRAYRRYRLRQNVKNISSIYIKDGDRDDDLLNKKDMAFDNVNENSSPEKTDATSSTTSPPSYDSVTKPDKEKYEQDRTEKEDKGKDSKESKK
T2 sequence (Q07699 19-218, further chain): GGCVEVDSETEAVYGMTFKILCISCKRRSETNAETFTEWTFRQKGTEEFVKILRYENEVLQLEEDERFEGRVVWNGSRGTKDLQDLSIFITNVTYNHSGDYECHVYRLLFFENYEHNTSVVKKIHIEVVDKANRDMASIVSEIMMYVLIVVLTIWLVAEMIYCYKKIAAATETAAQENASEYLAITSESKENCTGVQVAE
T1 sequence (Q07699 19-218): as the sequence (Q07699 19-218, further chain) above
T1 sequence (Q99250 whole entry): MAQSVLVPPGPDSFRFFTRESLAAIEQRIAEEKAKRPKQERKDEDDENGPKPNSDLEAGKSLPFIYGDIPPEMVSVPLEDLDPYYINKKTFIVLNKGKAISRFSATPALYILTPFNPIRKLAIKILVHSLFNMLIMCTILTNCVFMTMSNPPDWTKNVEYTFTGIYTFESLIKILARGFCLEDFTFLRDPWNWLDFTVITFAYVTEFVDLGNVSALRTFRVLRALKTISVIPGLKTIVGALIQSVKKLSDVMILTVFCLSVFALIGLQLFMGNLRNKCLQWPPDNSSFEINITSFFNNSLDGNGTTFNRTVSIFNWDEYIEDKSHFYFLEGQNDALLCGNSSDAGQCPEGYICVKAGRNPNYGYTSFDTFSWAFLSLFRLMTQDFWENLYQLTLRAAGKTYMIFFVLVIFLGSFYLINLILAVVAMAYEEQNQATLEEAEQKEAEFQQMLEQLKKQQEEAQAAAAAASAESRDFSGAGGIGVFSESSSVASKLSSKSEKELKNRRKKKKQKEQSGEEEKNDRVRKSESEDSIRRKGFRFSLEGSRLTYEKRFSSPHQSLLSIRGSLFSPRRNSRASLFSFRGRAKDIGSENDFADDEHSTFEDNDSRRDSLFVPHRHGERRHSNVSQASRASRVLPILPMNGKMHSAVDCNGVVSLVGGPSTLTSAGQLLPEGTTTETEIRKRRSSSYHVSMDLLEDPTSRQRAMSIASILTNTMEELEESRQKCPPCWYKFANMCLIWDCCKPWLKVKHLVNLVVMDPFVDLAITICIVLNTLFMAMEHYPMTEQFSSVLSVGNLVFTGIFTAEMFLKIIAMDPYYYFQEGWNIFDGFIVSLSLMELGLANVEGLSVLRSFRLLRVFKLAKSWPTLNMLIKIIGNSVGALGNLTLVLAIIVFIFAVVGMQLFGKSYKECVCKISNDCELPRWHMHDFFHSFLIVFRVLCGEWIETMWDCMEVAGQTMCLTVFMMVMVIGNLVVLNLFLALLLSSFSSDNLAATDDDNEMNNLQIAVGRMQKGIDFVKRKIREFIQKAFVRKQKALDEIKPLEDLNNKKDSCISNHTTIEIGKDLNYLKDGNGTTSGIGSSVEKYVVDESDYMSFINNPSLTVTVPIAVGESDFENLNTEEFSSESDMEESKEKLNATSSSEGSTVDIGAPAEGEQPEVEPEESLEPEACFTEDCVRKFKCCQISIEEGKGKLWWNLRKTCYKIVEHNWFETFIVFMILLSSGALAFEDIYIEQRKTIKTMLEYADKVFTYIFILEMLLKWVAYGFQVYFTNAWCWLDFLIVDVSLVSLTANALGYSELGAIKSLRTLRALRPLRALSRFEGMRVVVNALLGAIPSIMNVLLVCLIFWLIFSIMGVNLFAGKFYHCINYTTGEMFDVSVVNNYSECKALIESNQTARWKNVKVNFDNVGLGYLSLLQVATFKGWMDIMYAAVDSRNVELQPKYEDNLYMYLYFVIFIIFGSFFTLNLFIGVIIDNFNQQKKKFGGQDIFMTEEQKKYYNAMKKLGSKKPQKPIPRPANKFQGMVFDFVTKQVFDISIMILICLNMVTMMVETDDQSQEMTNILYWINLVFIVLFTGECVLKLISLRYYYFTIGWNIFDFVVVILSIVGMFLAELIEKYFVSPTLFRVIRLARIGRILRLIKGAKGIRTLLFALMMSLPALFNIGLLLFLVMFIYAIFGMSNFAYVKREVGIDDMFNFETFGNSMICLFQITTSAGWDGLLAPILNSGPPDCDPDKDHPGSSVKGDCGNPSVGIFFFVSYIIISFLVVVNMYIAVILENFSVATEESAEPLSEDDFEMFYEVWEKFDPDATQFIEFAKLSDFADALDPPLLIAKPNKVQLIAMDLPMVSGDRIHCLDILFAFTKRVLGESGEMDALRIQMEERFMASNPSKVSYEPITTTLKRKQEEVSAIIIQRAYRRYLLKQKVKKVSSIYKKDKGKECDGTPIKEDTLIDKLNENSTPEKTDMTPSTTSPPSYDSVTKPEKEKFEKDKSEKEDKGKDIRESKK

Usually IC50 stands for the concentration needed to halve the response being measured. On to `CC(C)C[C@H](NC(=O)[C@H](CO)NC(=O)[C@H](Cc1ccc(O)cc1)NC(=O)[C@H](CCCNC(=N)N)NC(=O)[C@@H]1CSSC[C@@H]2NC(=O)[C@H](CCCCN)NC(=O)[C@H](CC(N)=O)NC(=O)[C@H](CC(N)=O)NC(=O)[C@H](CC(N)=O)NC(=O)[C@@H]3CCCN3C(=O)[C@H](CC(=O)O)NC(=O)[C@@H]3CSSC[C@H](NC(=O)[C@H](C(C)C)NC(=O)[C@H](Cc4ccc(O)cc4)NC(=O)CNC(=O)[C@H](CCC(=O)O)NC(=O)[C@H](CSSC[C@H](NC(=O)[C@H](CC(=O)O)NC(=O)CN)C(=O)N[C@@H](CC(C)C)C(=O)NCC(=O)N[C@@H](Cc4c[nH]c5ccccc45)C(=O)N[C@@H](Cc4ccccc4)C(=O)N[C@@H](CO)C(=O)NCC(=O)N3)NC2=O)C(=O)N[C@@H](Cc2c[nH]cn2)C(=O)N[C@@H](Cc2c[nH]c3ccccc23)C(=O)N[C@@H](CCCCN)C(=O)N[C@@H](Cc2ccc(O)cc2)C(=O)N2CCC[C@H]2C(=O)N[C@@H](Cc2c[nH]c3ccccc23)C(=O)N1)C(=O)O` [D32S], for which the values for the IC50 on hNaV1.2, on hNaV1.7 and on hNaV1.3 were 97 nM, 101 nM and 137 nM, respectively.

For the compound `CC(C)C[C@H](NC(=O)[C@H](CC(=O)O)NC(=O)[C@H](Cc1ccc(O)cc1)NC(=O)[C@H](CCCNC(=N)N)NC(=O)[C@@H]1CSSC[C@@H]2NC(=O)[C@H](CCCCN)NC(=O)[C@H](CC(N)=O)NC(=O)[C@H](CC(N)=O)NC(=O)[C@H](CC(N)=O)NC(=O)[C@@H]3CCCN3C(=O)[C@H](CC(=O)O)NC(=O)[C@@H]3CSSC[C@H](NC(=O)[C@H](C(C)C)NC(=O)[C@H](Cc4ccc(O)cc4)NC(=O)CNC(=O)[C@H](CCC(=O)O)NC(=O)[C@H](CSSC[C@H](NC(=O)[C@H](CC(=O)O)NC(=O)CN)C(=O)N[C@@H](CC(C)C)C(=O)NCC(=O)N[C@@H](Cc4c[nH]c5ccccc45)C(=O)N[C@@H](Cc4ccccc4)C(=O)N[C@@H](CCCCN)C(=O)NCC(=O)N3)NC2=O)C(=O)N[C@@H](Cc2c[nH]cn2)C(=O)N[C@@H](Cc2c[nH]c3ccccc23)C(=O)N[C@@H](CCCCN)C(=O)N[C@@H](Cc2ccc(O)cc2)C(=O)N2CCC[C@H]2C(=O)N[C@@H](Cc2c[nH]c3ccccc23)C(=O)N1)C(=O)O` [S7K], the results for the IC50 on hNaV1.2, at hNaV1.7 and on hNaV1.3 were 201 nM, 181 nM and 929 nM, respectively.

Regarding `CC(C)C[C@H](NC(=O)[C@H](CC(=O)O)NC(=O)[C@H](Cc1ccc(O)cc1)NC(=O)[C@H](CCCNC(=N)N)NC(=O)[C@@H]1CSSC[C@@H]2NC(=O)[C@H](CCCCN)NC(=O)[C@H](CC(N)=O)NC(=O)[C@H](CC(N)=O)NC(=O)[C@H](CC(N)=O)NC(=O)[C@@H]3CCCN3C(=O)[C@H](CC(=O)O)NC(=O)[C@@H]3CSSC[C@H](NC(=O)[C@H](C(C)C)NC(=O)[C@H](CC(C)C)NC(=O)CNC(=O)[C@H](CCC(=O)O)NC(=O)[C@H](CSSC[C@H](NC(=O)[C@H](CC(=O)O)NC(=O)CN)C(=O)N[C@@H](CC(C)C)C(=O)NCC(=O)N[C@@H](Cc4c[nH]c5ccccc45)C(=O)N[C@@H](Cc4ccccc4)C(=O)N[C@@H](CO)C(=O)NCC(=O)N3)NC2=O)C(=O)N[C@@H](Cc2c[nH]cn2)C(=O)N[C@@H](Cc2c[nH]c3ccccc23)C(=O)N[C@@H](CCCCN)C(=O)N[C@@H](Cc2ccc(O)cc2)C(=O)N2CCC[C@H]2C(=O)N[C@@H](Cc2c[nH]c3ccccc23)C(=O)N1)C(=O)O` [Y20L], the IC50 was determined as 340 nM at hNaV1.2, 288 nM on hNaV1.7 and 476 nM at hNaV1.3.

For the compound `CC(C)C[C@H](NC(=O)[C@H](CC(=O)O)NC(=O)[C@H](Cc1ccc(O)cc1)NC(=O)[C@H](CCCNC(=N)N)NC(=O)[C@@H]1CSSC[C@@H]2NC(=O)[C@H](CCCCN)NC(=O)[C@H](CC(N)=O)NC(=O)[C@H](CC(N)=O)NC(=O)[C@H](CC(N)=O)NC(=O)[C@@H]3CCCN3C(=O)[C@H](CC(=O)O)NC(=O)[C@@H]3CSSC[C@H](NC(=O)[C@H](C(C)C)NC(=O)[C@H](Cc4ccc(O)cc4)NC(=O)CNC(=O)[C@H](CCC(=O)O)NC(=O)[C@H](CSSC[C@H](NC(=O)[C@H](CC(=O)O)NC(=O)CN)C(=O)N[C@@H](C)C(=O)NCC(=O)N[C@@H](Cc4c[nH]c5ccccc45)C(=O)N[C@@H](Cc4ccccc4)C(=O)N[C@@H](CO)C(=O)NCC(=O)N3)NC2=O)C(=O)N[C@@H](Cc2c[nH]cn2)C(=O)N[C@@H](Cc2c[nH]c3ccccc23)C(=O)N[C@@H](CCCCN)C(=O)N[C@@H](Cc2ccc(O)cc2)C(=O)N2CCC[C@H]2C(=O)N[C@@H](Cc2c[nH]c3ccccc23)C(=O)N1)C(=O)O` [L3A], the half-inhibitory concentration (IC50) at hNaV1.2 was determined as 154 nM; at hNaV1.7 it was 170 nM; on hNaV1.3 it was 311 nM.

In the case of `CC(C)C[C@H](NC(=O)[C@H](CC(=O)O)NC(=O)[C@H](Cc1ccc(O)cc1)NC(=O)[C@H](CCCNC(=N)N)NC(=O)[C@@H]1CSSC[C@@H]2NC(=O)[C@H](CCCCN)NC(=O)[C@H](CC(N)=O)NC(=O)[C@H](CC(N)=O)NC(=O)[C@H](CC(N)=O)NC(=O)[C@@H]3CCCN3C(=O)[C@H](CC(=O)O)NC(=O)[C@@H]3CSSC[C@H](NC(=O)[C@H](C(C)C)NC(=O)[C@H](Cc4ccc(O)cc4)NC(=O)CNC(=O)[C@H](CCC(=O)O)NC(=O)[C@H](CSSC[C@H](NC(=O)[C@H](CC(=O)O)NC(=O)CN)C(=O)N[C@@H](CC(C)C)C(=O)N[C@@H](CCC(N)=O)C(=O)N[C@@H](Cc4c[nH]c5ccccc45)C(=O)N[C@@H](Cc4ccccc4)C(=O)N[C@@H](CO)C(=O)NCC(=O)N3)NC2=O)C(=O)N[C@@H](Cc2c[nH]cn2)C(=O)N[C@@H](Cc2c[nH]c3ccccc23)C(=O)N[C@@H](CCCCN)C(=O)N[C@@H](Cc2ccc(O)cc2)C(=O)N2CCC[C@H]2C(=O)N[C@@H](Cc2c[nH]c3ccccc23)C(=O)N1)C(=O)O` [G4Q], the 50% inhibitory concentration (IC50) at hNaV1.2 is 503 nM; at hNaV1.7, 606 nM; at hNaV1.3, 999 nM.

Regarding `CC(C)C[C@H](NC(=O)[C@H](CC(=O)O)NC(=O)[C@H](Cc1ccc(O)cc1)NC(=O)[C@H](CCCNC(=N)N)NC(=O)[C@@H]1CSSC[C@@H]2NC(=O)[C@H](CCCCN)NC(=O)[C@H](CC(N)=O)NC(=O)[C@H](CC(N)=O)NC(=O)[C@H](CC(N)=O)NC(=O)[C@@H]3CCCN3C(=O)[C@H](CC(=O)O)NC(=O)[C@@H]3CSSC[C@H](NC(=O)[C@H](C(C)C)NC(=O)[C@H](Cc4ccc(O)cc4)NC(=O)CNC(=O)[C@H](CCC(=O)O)NC(=O)[C@H](CSSC[C@H](NC(=O)[C@H](CC(=O)O)NC(=O)CN)C(=O)N[C@@H](CC(C)C)C(=O)NCC(=O)N[C@@H](Cc4c[nH]c5ccccc45)C(=O)N[C@@H](Cc4ccccc4)C(=O)N[C@@H](CO)C(=O)NCC(=O)N3)NC2=O)C(=O)N[C@@H](Cc2c[nH]cn2)C(=O)N[C@@H](Cc2c[nH]c3ccccc23)C(=O)N[C@@H](CCCCN)C(=O)N[C@@H](Cc2ccc(O)cc2)C(=O)N[C@@H](CCCNC(=N)N)C(=O)N[C@@H](Cc2c[nH]c3ccccc23)C(=O)N1)C(=O)O` [P27R], the half-maximal inhibitory concentration (IC50) is 77 nM at hNaV1.2, 141 nM on hNaV1.7 and over 1000 nM on hNaV1.3. For the same compound, the “hNaV1.2-selectivity against hNaV1.3” value on hNaV1.2 (ratio of potencies hNaV1.3 / hNaV1.2) is on record as over 10 fold.

Take `CC(C)C[C@H](NC(=O)[C@H](CC(=O)O)NC(=O)[C@H](Cc1ccc(O)cc1)NC(=O)[C@H](CCCNC(=N)N)NC(=O)[C@@H]1CSSC[C@@H]2NC(=O)[C@H](CCCCN)NC(=O)[C@H](CC(N)=O)NC(=O)[C@H](CC(N)=O)NC(=O)[C@H](CC(N)=O)NC(=O)[C@@H]3CCCN3C(=O)[C@H](CC(=O)O)NC(=O)[C@@H]3CSSC[C@H](NC(=O)[C@H](C(C)C)NC(=O)[C@H](Cc4ccc(O)cc4)NC(=O)CNC(=O)[C@H](Cc4ccc(O)cc4)NC(=O)[C@H](CSSC[C@H](NC(=O)[C@H](CC(=O)O)NC(=O)CN)C(=O)N[C@@H](CC(C)C)C(=O)NCC(=O)N[C@@H](Cc4c[nH]c5ccccc45)C(=O)N[C@@H](Cc4ccccc4)C(=O)N[C@@H](CO)C(=O)NCC(=O)N3)NC2=O)C(=O)N[C@@H](Cc2c[nH]cn2)C(=O)N[C@@H](Cc2c[nH]c3ccccc23)C(=O)N[C@@H](CCCCN)C(=O)N[C@@H](Cc2ccc(O)cc2)C(=O)N2CCC[C@H]2C(=O)N[C@@H](Cc2c[nH]c3ccccc23)C(=O)N1)C(=O)O` [E18Y]: the results for the IC50 at hNaV1.2, at hNaV1.7 and at hNaV1.3 were 203 nM, 179 nM and 300 nM, respectively.

In the case of `CC(C)C[C@H](NC(=O)[C@H](CC(=O)O)NC(=O)[C@H](Cc1ccc(O)cc1)NC(=O)[C@H](CCCNC(=N)N)NC(=O)[C@@H]1CSSC[C@@H]2NC(=O)[C@H](CCCCN)NC(=O)[C@H](CC(N)=O)NC(=O)[C@H](CC(N)=O)NC(=O)[C@H](CC(N)=O)NC(=O)[C@@H]3CCCN3C(=O)[C@H](CC(=O)O)NC(=O)[C@@H]3CSSC[C@H](NC(=O)[C@H](C(C)C)NC(=O)[C@H](Cc4ccc(O)cc4)NC(=O)CNC(=O)[C@H](CCC(=O)O)NC(=O)[C@H](CSSC[C@H](NC(=O)[C@H](CC(=O)O)NC(=O)CN)C(=O)N[C@@H](CC(C)C)C(=O)NCC(=O)N[C@@H](Cc4c[nH]c5ccccc45)C(=O)N[C@@H](Cc4ccccc4)C(=O)N[C@@H](CO)C(=O)NCC(=O)N3)NC2=O)C(=O)N[C@@H](Cc2c[nH]cn2)C(=O)N[C@@H](Cc2c[nH]c3ccccc23)C(=O)N[C@@H](CCCCN)C(=O)N[C@@H](Cc2ccc(O)cc2)C(=O)N2CCC[C@H]2C(=O)N[C@@H](CCCCN)C(=O)N1)C(=O)O` [W28K] (H-GDCLGWFSGCDPNNNKCCEGYVCHWKYPKCRYDL-OH; disulfide 3-18, 10-23, 17-30 (inferred); N-terminus and C-terminus assumed), the concentration for half-maximal inhibition (IC50) on hNaV1.2, on hNaV1.7 and at hNaV1.3 was over 3000 nM in each case.
